From patent publication US20110129844A1, “Use of Activating Transcription Factor-2 (ATF2) for Detecting Skin Cancer” (priority 2007, published 2011)
Like-named read-outs stand apart in the source and are kept apart here.

What was measured:
[1] = tested on: epidermis; settings: three topical applications of TPA at 10 μg each; for thickness of hyperplastic epidermis (mean±SD): 18 hrs post treatment; for thickness of epidermal layers: after 48 hrs
Protocol: Measurement of Hyperplasia. Hyperplasia was assessed in six WT and K14.ATF2^f/f mice (8-week-old) after treatment with acetone or TPA at the indicated time points. The thickness of the epidermis (μm) was measured using an image system (SlideBook-Intelligent imaging) in 15 fields per section.
In order to determine the possible effect of ATF2 disruption on keratinocyte proliferation possible changes in epidermal hyperplasia was assessed.

[2] = tested on: basal epidermal cells; test: BrdU incorporation in basal keratinocytes after TPA treatment; assay type: in vivo, mice
Protocol: 5-bromo-2-deoxyuridine (BrdU) incorporation. 8-week-old K14.ATF2^f/f mice and WT mice were shaved 2 days before treatment with TPA (10 μg/200 μl acetone). BrdU (0.1 mg/g body weight) was injected intraperitoneally 1 h before the mice were sacrificed. The mice were euthanized 7, 24 and 48 h after six TPA treatments and their dorsal skins were removed, fixed in formalin and processed for paraffin embedding. Immunohistochemical staining was performed with a monoclonal anti-BrdU antibody (Sigma Aldrich, 1:100), which was applied to each section overnight at 4° C. after masking mouse IgG according to the protocol of the M.O.M. kit. […] BrdU positive and negative basal cells were counted in three to five randomly selected areas of each skin section (3-4 sections per mouse) and the mean percentage of BrdU-positive cells and standard deviation (s.d.) for each treatment group were determined.
Induced DNA synthesis in basal epidermal cells of TPA-treated K14.ATF2^f/f mice. In light of the enhanced hyperplastic responses seen in the epidermis of K14.ATF2^f/f mice, possible changes in the rate of keratinocyte proliferation, which could account for the increased hyperplasia, were assessed. BrdU labeling was carried out to quantify DNA synthesis in basal keratinocytes. […]

[3] = tested on: epidermal keratinocytes

Structure (SMILES): CCCCCCCCCCCCCC(=O)O[C@@H]1[C@@H](C)[C@@]2(O)[C@@H](C=C(CO)C[C@]3(O)C(=O)C(C)=C[C@@H]23)[C@H]2C(C)(C)[C@]12OC(C)=O [TPA]
- thickness of hyperplastic epidermis (mean±SD) ([1]; K14.ATF2f/f mice): 42±3.2 μm
- thickness of epidermal layers ([1]; K14.ATF2f/f mice): 102±2.8 μm
- thickness of hyperplastic epidermis (mean±SD) ([1]; WT mice): 21±2.6 μm
- thickness of epidermal layers ([1]; wild-type mice): 45±2.3 μm
- percentage of BrdU-labeled basal cells ([2]; K14.ATF2f/f mice, 24 h after TPA treatment): 32±3.0%
- percentage of BrdU-labeled basal cells ([2]; wild-type mice, 24 hours after TPA treatment): 15±3%
- papilloma development ([3]; DMBA or TPA alone, WT or ATF2 mutant mice): did not result in papilloma development

Structure (SMILES): Cc1c2ccccc2c(C)c2c1ccc1ccccc12 [DMBA, 7,12-dimethylbenz[a]anthracene]
- mice having developed tumors ([3]; mouse, in vivo): 50%
- mice that had developed tumors ([3]; mouse, in vivo): about 40%
- papilloma development ([3]; mouse, in vivo): did not result in papilloma development
- time at which papillomas started to appear after DMBA treatment ([3]; mouse, in vivo): around 17 weeks
